64 compounds from a melting point compilation (Tetko et al.; mined from patent text by program, amines drawn as free bases though some values may be those of a salt) can be followed below.

One may read the melting point as the temperature, or range, at which the solid turns liquid.

With `CCNc1ccc(-c2c(N)nc(N)nc2CC)cc1[N+](=O)[O-]`, the melting point lay in the range of 275 to 276 °C.

As for `CC(=O)NCSC[C@H](NC(=O)OC(C)(C)C)C(=O)O`, the melting point fell in the range of 110 to 112 °C.

As for `CCOC(=O)C1=C(N)NC2=C(C(=O)CCC2)C1c1cccc(C)n1` (centres undefined), the melting point was > 260 °C.

The compound `N#Cc1c(N2CCN(C(=O)c3cccs3)CC2)c2cccnc2n(C2CCCCC2)c1=O` gave a melting point of 192 °C.

Take `Cc1nnsc1C(=O)c1[nH]c2cc(Cl)ccc2c1CC(=O)O`: the melting point was 215 to 216 °C.

Compound `CC(C)CN1CCC(CNc2ccc(Cl)cc2C(=O)Nc2ccc(Cl)cn2)CC1` registered a melting point of 121 to 122 °C.

Consider `C[C@@H]1C(=O)C[C@H]2C[C@@H]1OO[C@@]2(C)/C=C\c1ccc(Cl)cc1`, for which the melting point was found to be 90 °C.

Compound `COc1ccc(C[C@@H](CO)NC(=O)c2cccnc2Br)cc1OC` registered a melting point of 136 to 138 °C.

The compound `C[C@@H](NC(=O)[C@H](Cc1ccc(OCc2ccccc2)cc1)NC(=O)[C@@H](N)COCc1ccccc1)C(=O)O` returned a melting point of 121 to 122 °C.

In turn, `COc1ccc(CC(=O)NC(NC(=NC#N)Nc2cccc3ncccc23)C(C)(C)C)cc1OC` (centres undefined) came in with a melting point of 128 to 129 °C.

Regarding `COc1ccc2[nH]c(C(=O)c3ccccc3)c(NC(C)=O)c2c1`, the melting point lay in the range of 258 to 260 °C.

In turn, `OC(c1cc(F)ccc1F)c1cc(Cl)ncc1Cl` (centres undefined) gave a melting point of 160 to 161 °C.

As to `Cc1cccc(-c2nc(CI)c(C)o2)c1`, the melting point was 32 °C.

`CNC(=O)NCCn1c(-c2ccc(CN3CCOCC3)cc2OC)csc1=Nc1ccc(F)c(C)c1`: the melting point fell in the range of 158 to 162 °C.

`CCOc1cn(C2CC(O)C(CO)O2)c(=O)[nH]c1=O` (centres undefined) returned a melting point of 179 to 181 °C.

The compound `O=C(CO)NCCCOCCCCOCCCNC(=O)CO` yielded a melting point of 67 to 71 °C.

As to `O=C(/C=C/c1ccc2ccccc2c1)Nc1cc(Cl)ccc1NS(=O)(=O)c1ccccc1`, the melting point is 220 to 223 °C.

The compound `NC(=O)c1c(Cl)c(-c2ccccc2)n2c1CN(C(=O)c1cccs1)CC2` returned a melting point of 236 to 238 °C.

In turn, `CCc1noc(NC(=O)N2CCN(c3ccnc(-c4cccc(F)c4F)n3)CC2)c1C` registered a melting point of 188 to 189 °C.

On to `OCc1ccc(-c2ccc(CO)cc2)cc1`, for which the melting point lay in the range of 195 to 197 °C.

In the case of `CS(=O)(=O)C1Cc2cc(Cl)ccc2C1=O` (centres undefined), the melting point came to 197 °C.

As to `COc1c(OCc2ccccc2)ccc(C(=O)O)c1N`, the melting point was 167 to 168 °C.

`NNc1ccnc(-c2cccc(I)c2)n1` registered a melting point of 179 to 181 °C.

For `O=C(CCCOc1ccc(C=Cc2ccncc2)cc1)Nc1nnn[nH]1`, the melting point is 274 to 276 °C.

`CN(CCc1nc(-c2cc(C(C)(C)C)c(O)c(C(C)(C)C)c2)cs1)C(=O)OC(C)(C)C` displayed a melting point of 204 °C.

`O=C(O)c1cscc1Br` came in with a melting point of 157 to 158 °C.

Regarding `OCC1CC2CCC13CN(CC1CC1)CCC31c3cccc(O)c3OC21` (centres undefined), the melting point lay within 187 to 190 °C.

The compound `Cc1nc(N2CCN(Cc3ccc(OC(F)(F)F)cc3)C2=O)sc1C(=O)NCC1CC1` yielded a melting point of 184 to 186 °C.

The compound `Cc1cc(C)c2c(c1O)C(=O)C(C)(C)C2` had a melting point of 28 to 30 °C.

The compound `c1cncc(C2CCc3ccccc3O2)c1` (centres undefined) showed a melting point of 59 to 60 °C.

On to `COc1cc2nc(N3CCN(C)CC3)n3ncnc3c2cc1OC`, for which the melting point lay in the range of 194 to 196 °C.

Compound `O=C(N[C@@H]1C(=O)N[C@@H]1C=Cc1ccccc1)OCc1ccccc1` had a melting point of 201 to 204 °C.

Consider `O=C(O)c1cc([N+](=O)[O-])cc2ccccc12`, for which the melting point fell in the range of 255 to 257 °C.

In the case of `Nc1nc(O)c2cc(C#Cc3ccc(C(=O)O)cc3)cnc2n1`, the melting point was > 260 °C.

Compound `CC(C)(CNC(=O)CSCC(=O)O)SN=O` returned a melting point of 47 to 51 °C.

`Cc1ccc(S(=O)(=O)N2[C@@H](c3ncon3)CC[C@H]2c2ccc(F)cc2)cc1` (racemic): the melting point amounted to 165 °C.

`COC1c2ccccc2C(=O)N1CCN1CCC(Cc2c[nH]c3ccc(F)cc23)CC1` (racemic) registered a melting point of 175 °C.

Compound `NC(=O)c1cc2c(-c3cccc(NC(=O)c4cccc(C(F)(F)F)c4)c3)ncnc2s1` registered a melting point of 275 to 278 °C.

On to `COC(=O)CC[C@@H](NC(=O)[C@H](CO)NC(=O)OC(C)(C)C)C(=O)OC`, for which the melting point is 90 to 92 °C.

With `NC(=O)C1CCN(C(=O)c2ccc(NCc3cnc4nc(N)nc(N)c4n3)cc2)CC1`, the melting point is > 300 °C.

`COc1ccccc1CNc1ccc2cc(Nc3nccc(C)n3)ccc2n1` returned a melting point of 125 °C.

As to `COC(=O)Cc1ccc(OCCNC(=O)C2Cc3ccccc3N2S(=O)(=O)c2ccc(-c3ccc(F)cc3Cl)cc2)cc1` (centres undefined), the melting point is 68 °C.

As for `COC(=O)c1[nH]nc2c1C(C)Cc1cc(OC)ccc1-2` (centres undefined), the melting point amounted to 163 °C.

For the compound `COc1ccc(Cl)c(S(=O)(=O)NC(=O)c2cn3cc(C(F)(F)F)ncc3n2)c1`, the melting point lay within 236 to 237 °C.

Regarding `CCCc1cc(Cl)c2oc(Cc3ccc(OCC(=O)O)cc3)c(C)c2c1O`, the melting point is 179 to 180 °C.

Regarding `Cc1cccc(NC(=O)NC2N=C(c3ccccc3F)c3ccccc3N(Cc3csc4ccccc34)C2=O)c1` (racemic), the melting point lay in the range of 214 to 216 °C.

With `CC(=O)NCCNC(=O)Nc1ccc(-c2c[nH]c(=O)cn2)cc1`, the melting point was in the range of 238 to 244 °C.

As for `CCCCOC(=O)c1ccccc1OC(=O)N(C)SN(C)C(=O)ON=C(C)SC`, the melting point lay in the range of 68 to 74 °C.

`COC(CN(C)C(=O)Nc1nnc(C(C)Oc2ccccc2Cl)s1)OC` (centres undefined): the melting point lay within 101 to 104 °C.

With `COC(=O)c1ccc(C2NCCc3c2[nH]c2ccccc32)cc1` (centres undefined), the melting point is 179 °C.

`Cc1cn(-c2cc(N)cc(C(F)(F)F)c2)cn1`: the melting point was in the range of 123 to 124 °C.

Compound `CC(C)N(C(=O)Cl)c1ccccc1` showed a melting point of 89 to 90 °C.

`Cc1cc(C)cc(Oc2cc(Br)cc(S(=O)(=O)N3CCN(C(=O)OC(C)(C)C)CC3)c2)c1` displayed a melting point of 155 °C.

On to `CN(C(=O)c1ccc2nonc2c1)C1CCC(F)(F)CC1`, for which the melting point lay within 137 to 138 °C.

`CC1(C)CCCC=C1c1ccc(C(=O)O)cc1` returned a melting point of 181 °C.

In turn, `CCc1cnc2n1N=C(c1ccc(N)cc1)c1cc3c(cc1C2)OCO3` registered a melting point of 258 to 260 °C.

`O=C1NCCc2c(OCc3ccccc3)cccc21`: the melting point was 171 to 173 °C.

Compound `Fc1cc2nc3c(cnn3-c3ccccn3)c(Cl)c2cc1F` displayed a melting point of 167 to 168 °C.

`CCOC(=O)C=Cn1c(=O)n2nc(C(=O)OCC)cc2c2cc(OC)ccc21` displayed a melting point of 153 to 154 °C.

`O=Cc1ccc(-c2ccc(C(F)(F)F)cc2)cc1` had a melting point of 70 °C.

The compound `O=C(NCCC1CC2CCC1C2)n1cc(F)c(=O)[nH]c1=O` (centres undefined) returned a melting point of 128 to 130 °C.

In turn, `CCC/C(=C\C#N)c1ccc2c(c1)C(CC)(CC)OC(=O)N2` yielded a melting point of 121 to 124 °C.

Regarding `CCOC(=O)c1cn(C)c2cnc3cc(N4CCN(c5ccc(F)cc5)CC4)c(F)cc3c2c1=O`, the melting point was found to be 300 °C.

`CN(C)c1nc(Cl)nc(-n2ccnc2)n1` gave a melting point of 88 to 92 °C.
